Article PMC2095803 (Nucleic Acids Research, 2007)

Columns and labels:
Bst DNA polymerase [1] = target: T1, Bst DNA polymerase (Geobacillus stearothermophilus, UniProt P52026); assay: PEP; format: biochemical, Bacillus stearothermophilus
T1 sequence (P52026 289-876 limits assumed): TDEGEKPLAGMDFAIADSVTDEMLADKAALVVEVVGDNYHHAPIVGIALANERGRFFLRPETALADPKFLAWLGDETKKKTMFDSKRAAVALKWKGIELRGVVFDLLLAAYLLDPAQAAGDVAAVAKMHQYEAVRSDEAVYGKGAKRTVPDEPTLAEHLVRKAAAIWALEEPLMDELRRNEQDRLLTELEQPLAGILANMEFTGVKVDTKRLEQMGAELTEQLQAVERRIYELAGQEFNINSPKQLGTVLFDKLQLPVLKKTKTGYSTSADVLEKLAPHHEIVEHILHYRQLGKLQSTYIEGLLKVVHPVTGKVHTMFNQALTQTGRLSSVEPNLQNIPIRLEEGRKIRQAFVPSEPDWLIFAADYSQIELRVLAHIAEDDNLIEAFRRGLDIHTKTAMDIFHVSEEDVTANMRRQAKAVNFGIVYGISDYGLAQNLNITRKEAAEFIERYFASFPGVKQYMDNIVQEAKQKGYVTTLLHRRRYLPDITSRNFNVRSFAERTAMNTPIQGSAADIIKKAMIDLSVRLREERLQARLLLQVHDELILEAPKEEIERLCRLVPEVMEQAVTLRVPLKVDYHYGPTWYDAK

[2] = target: Klenow(exo−) DNA polymerase (Escherichia coli, UniProt P00582, D355A/E357A); assay: PEP; format: biochemical
[3] = target: T2, Therminator II DNA polymerase (Thermococcus sp., UniProt Q56366, A485L/D141A/E143A/Y409V); assay: PEP; format: biochemical, Thermococcus species 9ºN-7
T2 sequence (Q56366 1-775 D141A/E143A/Y409V/A485L): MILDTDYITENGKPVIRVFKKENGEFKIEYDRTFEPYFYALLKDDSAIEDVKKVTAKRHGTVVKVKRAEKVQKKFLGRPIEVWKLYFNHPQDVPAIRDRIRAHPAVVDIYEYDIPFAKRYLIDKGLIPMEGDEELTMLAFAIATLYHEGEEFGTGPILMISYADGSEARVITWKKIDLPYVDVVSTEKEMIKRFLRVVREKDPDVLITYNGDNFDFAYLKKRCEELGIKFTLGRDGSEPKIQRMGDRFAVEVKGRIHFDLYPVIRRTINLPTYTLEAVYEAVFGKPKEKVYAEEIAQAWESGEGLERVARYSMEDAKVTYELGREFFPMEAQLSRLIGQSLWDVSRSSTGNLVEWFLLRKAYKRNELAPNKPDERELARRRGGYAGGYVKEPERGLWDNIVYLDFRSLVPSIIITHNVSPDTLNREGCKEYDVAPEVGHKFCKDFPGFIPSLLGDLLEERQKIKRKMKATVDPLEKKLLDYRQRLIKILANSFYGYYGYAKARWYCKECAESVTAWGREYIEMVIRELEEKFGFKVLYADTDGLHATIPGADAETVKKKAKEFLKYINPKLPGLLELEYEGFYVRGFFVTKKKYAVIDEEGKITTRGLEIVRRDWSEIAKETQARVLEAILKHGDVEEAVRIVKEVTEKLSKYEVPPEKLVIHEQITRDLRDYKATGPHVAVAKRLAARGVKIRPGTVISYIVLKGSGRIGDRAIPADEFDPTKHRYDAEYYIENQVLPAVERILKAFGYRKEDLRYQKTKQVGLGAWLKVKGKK

[4] = target: T3, DeepVent(exo−) DNA polymerase (Pyrococcus sp. GB-D, UniProt Q51334, D141A/E143A); assay: PEP; format: biochemical, Pyrococcus species GB-D
T3 sequence (Q51334 with tags, fused parts or gaps D141A/E143A): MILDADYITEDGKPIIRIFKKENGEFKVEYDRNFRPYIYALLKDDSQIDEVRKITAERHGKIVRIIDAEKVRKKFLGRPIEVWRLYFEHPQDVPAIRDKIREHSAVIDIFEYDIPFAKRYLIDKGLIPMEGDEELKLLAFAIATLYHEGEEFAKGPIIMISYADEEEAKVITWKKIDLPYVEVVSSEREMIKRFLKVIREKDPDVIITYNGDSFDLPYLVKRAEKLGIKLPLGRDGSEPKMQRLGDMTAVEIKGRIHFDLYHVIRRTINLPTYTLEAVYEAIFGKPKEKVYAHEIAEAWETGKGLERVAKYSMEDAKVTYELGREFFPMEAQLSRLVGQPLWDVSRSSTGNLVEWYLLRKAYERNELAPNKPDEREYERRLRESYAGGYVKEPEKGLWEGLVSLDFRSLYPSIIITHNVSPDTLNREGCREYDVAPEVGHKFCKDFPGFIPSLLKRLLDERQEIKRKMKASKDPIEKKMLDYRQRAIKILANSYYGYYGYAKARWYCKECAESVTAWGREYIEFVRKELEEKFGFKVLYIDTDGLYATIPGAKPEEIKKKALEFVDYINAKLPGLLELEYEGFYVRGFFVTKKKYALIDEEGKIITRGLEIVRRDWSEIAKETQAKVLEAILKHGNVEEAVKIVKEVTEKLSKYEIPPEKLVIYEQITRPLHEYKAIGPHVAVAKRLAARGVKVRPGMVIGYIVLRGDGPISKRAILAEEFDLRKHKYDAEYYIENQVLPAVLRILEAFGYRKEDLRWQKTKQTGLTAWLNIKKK

Bst DNA polymerase [5] = target: T1, Bst DNA polymerase; assay: PEP mismatch; format: biochemical, Bacillus stearothermophilus
[6] = Klenow(exo−), ratio of IC50 values
[7] = Therminator II, ratio of IC50 values

| SMILES | Incorporation bias Cpd IIIc/dATP (Bst DNA polymerase [1]; Bst, ratio of IC50 values) | Incorporation bias Cpd IIIc/ddATP (Bst DNA polymerase [1]; Bst, ratio of IC50 values) | Incorporation bias Cpd IIIc/dATP [2, 6] | Incorporation bias Cpd IIIc/ddATP [2, 6] | Incorporation bias Cpd IIIc/dATP [3, 7] | Incorporation bias Cpd IIIc/ddATP [3, 7] | IC50 [4] | Discrimination ratio, cytosine–adenine mismatch over complement thymidine base (Bst DNA polymerase [5]; Bst, C template base (oligoTemplate)) | Nucleotide discrimination, IC50 of mismatched versus matched bases (Bst DNA polymerase [5]; Bst, mismatched template bases A, C or G) | IC50 (Bst DNA polymerase [1]) | Incorporation bias ddATP/dATP (Bst DNA polymerase [1]; Bst, ratio of IC50 values) | IC50 [2] | Incorporation bias ddATP/dATP [2, 6] | IC50 [3] | Incorporation bias ddATP/dATP [3, 7] | Mismatch incorporation (Bst DNA polymerase [5]; final concentration of 500 μM (data not shown)) |
| --- | --- | --- | --- | --- | --- | --- | --- | --- | --- | --- | --- | --- | --- | --- | --- | --- |
| O=[N+]([O-])c1ccccc1CNc1ncnc2c1ncn2[C@H]1C[C@H](O)[C@@H](COP(=O)(O)OP(=O)(O)OP(=O)(O)O)O1 [Compound IIIc, N^6-(2-Nitrobenzyl)-2’-deoxyadenosine-5’-triphosphate] | 18 | 0.057 | 2.7 | 0.15 | 1.8 | 0.034 | 11 ± 0.6 nM | 1100 fold | greater than two orders of magnitude |  |  |  |  |  |  |  |
| Nc1ncnc2c1ncn2[C@H]1CC[C@@H](COP(=O)(O)OP(=O)(O)OP(=O)(O)O)O1 [ddATP, 2′,3′-dideoxyadenosine triphosphate, reference compound] |  |  |  |  |  |  | 3400 ± 400 nM |  |  | 370 ± 30 nM | 310 | 29 ± 5 nM | 18 | 230 ± 30 nM | 52 | did not show mismatch incorporation |
